Measured values published in PMC7291858, “An Enhanced Variant Designed From DLP4 Cationic Peptide Against Staphylococcus aureus CVCC 546” (Frontiers in Microbiology, 2020).
Peptide text beside a SMILES is read from it.

Tested on: S. aureus ATCC 43300
Type: cell-based, Staphylococcus aureus
Details: microtiter, serial 2-fold dilutions, 37°C, 16∼20 h, triplicate; – = no activity
Experimental: The minimal inhibitory concentration (MIC) was evaluated by a microtiter plate assay ([Wiegand et al., 2008]). Serial 2-fold dilutions of test peptides were placed into a 96-well plate containing identical bacterial inoculum and incubated at 37°C for 16∼20 h. Vancomycin was used as antibiotic control. The MIC value was defined as the lowest peptide concentration where no visible growth occurred. All tests were made in triplicate.

Structure (SMILES)	A1 (MIC against S. aureus ATCC 43300) [µg/mL]
CC[C@H](C)[C@@H]1NC(=O)[C@@H]2CSSC[C@@H](C(=O)N[C@@H](CCCNC(=N)N)C(=O)N[C@@H](CCCCN)C(=O)O)NC(=O)[C@H](CC(N)=O)NC(=O)[C@@H]3CSSC[C@H](NC(=O)[C@H](C)NC(=O)[C@H](C)NC(=O)[C@H](Cc4c[nH]cn4)NC(=O)CNC(=O)[C@H](C(C)C)NC(=O)[C@H](CCCCN)NC(=O)[C@H](Cc4ccccc4)NC(=O)[C@@H]4CCCN4C(=O)[C@H](CO)NC(=O)[C@H](CC(C)C)NC(=O)[C@H](CC(C)C)NC(=O)[C@H](CC(=O)O)NC(=O)[C@@H](NC(=O)[C@@H](NC(=O)[C@H](C)N)[C@@H](C)O)CSSC[C@H](NC(=O)[C@H](Cc4c[nH]c5ccccc45)NC(=O)CNC(=O)CNC(=O)[C@H](CCCNC(=N)N)NC(=O)[C@H](CC(N)=O)NC(=O)CNC(=O)[C@H](CCCNC(=N)N)NC(=O)[C@H](C)NC1=O)C(=O)N[C@@H](CC(=O)O)C(=O)NCC(=O)N[C@@H](CCCNC(=N)N)C(=O)N[C@@H](C)C(=O)N[C@@H](C(C)C)C(=O)N3)C(=O)N[C@@H](C)C(=O)N[C@@H](C)C(=O)N[C@@H](Cc1c[nH]cn1)C(=O)N2 [ID18] (HELM PEPTIDE1{A.T.C.D.L.L.S.P.F.K.V.G.H.A.A.C.A.A.H.C.I.A.R.G.N.R.G.G.W.C.D.G.R.A.V.C.N.C.R.K}$PEPTIDE1,PEPTIDE1,3:R3-30:R3|PEPTIDE1,PEPTIDE1,16:R3-36:R3|PEPTIDE1,PEPTIDE1,20:R3-38:R3$$$V2.0; N-terminus and C-terminus assumed; bridges inferred)	16
CC[C@H](C)[C@@H]1NC(=O)[C@@H]2CSSC[C@@H](C(=O)N[C@@H](CCCNC(=N)N)C(=O)N[C@@H](CCCCN)C(=O)O)NC(=O)[C@H](CC(N)=O)NC(=O)[C@@H]3CSSC[C@H](NC(=O)[C@H](C)NC(=O)[C@H](C)NC(=O)[C@H](Cc4c[nH]cn4)NC(=O)CNC(=O)[C@H](C(C)C)NC(=O)[C@H](CCCCN)NC(=O)[C@H](Cc4ccccc4)NC(=O)[C@@H]4CCCN4C(=O)[C@H](CO)NC(=O)[C@H]([C@@H](C)CC)NC(=O)[C@H](CC(C)C)NC(=O)[C@H](CC(=O)O)NC(=O)[C@@H](NC(=O)[C@@H](NC(=O)[C@H](C)N)[C@@H](C)O)CSSC[C@H](NC(=O)[C@H](Cc4c[nH]c5ccccc45)NC(=O)CNC(=O)CNC(=O)[C@H](CCCNC(=N)N)NC(=O)[C@H](CCCCN)NC(=O)CNC(=O)[C@H](CCCNC(=N)N)NC(=O)[C@H](C)NC1=O)C(=O)N[C@@H](CC(=O)O)C(=O)N[C@@H](CCCCN)C(=O)N[C@@H](CCCNC(=N)N)C(=O)N[C@@H](C)C(=O)N[C@@H](C(C)C)C(=O)N3)C(=O)N[C@@H](C)C(=O)N[C@@H](C)C(=O)N[C@@H](Cc1c[nH]cn1)C(=O)N2 [ID5] (HELM PEPTIDE1{A.T.C.D.L.I.S.P.F.K.V.G.H.A.A.C.A.A.H.C.I.A.R.G.K.R.G.G.W.C.D.K.R.A.V.C.N.C.R.K}$PEPTIDE1,PEPTIDE1,3:R3-30:R3|PEPTIDE1,PEPTIDE1,16:R3-36:R3|PEPTIDE1,PEPTIDE1,20:R3-38:R3$$$V2.0; N-terminus and C-terminus assumed; bridges inferred)	16
